{"source": "PubChem BioAssay AID180", "about": "(DTP/NCI, 2004)", "system": "BDF1 mice, Adenocarcinoma 755 s.c., tumor weight T/C", "assay": "NCI In Vivo Anticancer Drug Screen. Data for tumor model Adenocarcinoma 755 (subcutaneous) in B6D2F1 (BDF1) mice", "details": "endpoint: mean tumor weight, higher = larger tumour", "outline": "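Readout: T/C, i.e. treated-group measurement over vehicle-control measurement. Endpoint is survival or tumor size in tumor-bearing mice given compound.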", "key": {"[1]": {"details": "dose: 25.0 mg/kg/injection, schedule: Q01DX011 (ip), vehicle: carboxymethylcellulose (CMC)"}, "[2]": {"details": "dose: 75.0 mg/kg/injection, schedule: Q01DX011 (ip), vehicle: carboxymethylcellulose (CMC)"}}, "data": [{"smiles": "CCCCCn1cnc2c(=S)nc(N)[nH]c21", "values": [{"measurement": "T/C", "setting": "dose: 3.1 mg/kg/injection, schedule: Q01DX011 (ip), vehicle: carboxymethylcellulose (CMC)", "result": "112 % of control"}, {"measurement": "T/C", "setting": "dose: 6.2 mg/kg/injection, schedule: Q01DX011 (ip), vehicle: carboxymethylcellulose (CMC)", "result": "76 % of control"}, {"measurement": "T/C", "setting": "dose: 12.5 mg/kg/injection, schedule: Q01DX011 (ip), vehicle: carboxymethylcellulose (CMC)", "result": "28 % of control"}, {"measurement": "T/C", "setting": "[1]", "result": "10 % of control"}, {"measurement": "T/C", "setting": "[2]", "result": "2 % of control"}]}, {"smiles": "NC(=S)N/N=C/c1cccnc1", "values": [{"measurement": "T/C", "setting": "dose: 1:1000.0 dilution, schedule: Q01DX006 (ip), vehicle: water", "result": "124 % of control"}, {"measurement": "T/C", "setting": "dose: 1:2000.0 dilution, schedule: Q01DX006 (ip), vehicle: water", "result": "110 % of control"}]}, {"smiles": "O=C([O][Hg][CH2]C1CC(O)CC([CH2][Hg][O]C(=O)c2ccccc2)O1)c1ccccc1", "note": "(stereo unspecified)", "values": [{"measurement": "T/C", "setting": "[1]", "result": "83 % of control"}, {"measurement": "T/C", "setting": "dose: 50.0 mg/kg/injection, schedule: Q01DX011 (ip), vehicle: carboxymethylcellulose (CMC)", "result": "33 % of control"}]}, {"smiles": "Cn1c(=O)c2c(ncn2CCCO)n(C)c1=O", "values": [{"measurement": "T/C", "setting": "[2]", "result": "61 % of control"}, {"measurement": "T/C", "setting": "dose: 225.0 mg/kg/injection, schedule: Q01DX011 (ip), vehicle: carboxymethylcellulose (CMC)", "result": "65 % of control"}]}, {"smiles": "CC(=O)N1CCCCC1", "values": [{"measurement": "T/C", "setting": "dose: 12.5 mg/kg/injection, schedule: Q01DX011 (ip), vehicle: other", "result": "92 % of control"}, {"measurement": "T/C", "setting": "dose: 25.0 mg/kg/injection, schedule: Q01DX011 (ip), vehicle: other", "result": "69 % of control"}, {"measurement": "T/C", "setting": "dose: 50.0 mg/kg/injection, schedule: Q01DX011 (ip), vehicle: other", "result": "73 % of control"}, {"measurement": "T/C", "setting": "dose: 100.0 mg/kg/injection, schedule: Q01DX011 (ip), vehicle: other", "result": "85 % of control"}]}, {"smiles": "COc1ccc(-c2c(C)c(C(=O)O)nc(-c3ccc(C(=O)O)c(C(=O)O)n3)c2N)c(O)c1OC", "values": [{"measurement": "T/C", "setting": "dose: 100.0 mg/kg/injection, schedule: Q01DX011 (ip), vehicle: water", "result": "58 % of control"}, {"measurement": "T/C", "setting": "dose: 200.0 mg/kg/injection, schedule: Q01DX011 (ip), vehicle: water", "result": "83 % of control"}]}, {"smiles": "O=C1CN(/N=C\\c2ccc([N+](=O)[O-])o2)C(=O)N1", "values": [{"measurement": "T/C", "setting": "dose: 4.74 mg/kg/injection, schedule: Q01DX011 (ip), vehicle: carboxymethylcellulose (CMC)", "result": "111 % of control"}, {"measurement": "T/C", "setting": "dose: 8.03 mg/kg/injection, schedule: Q01DX011 (ip), vehicle: carboxymethylcellulose (CMC)", "result": "96 % of control"}, {"measurement": "T/C", "setting": "dose: 9.48 mg/kg/injection, schedule: Q01DX011 (ip), vehicle: carboxymethylcellulose (CMC)", "result": "121 % of control"}, {"measurement": "T/C", "setting": "dose: 12.5 mg/kg/injection, schedule: Q01DX011 (ip), vehicle: methylcellulose (MC)", "result": "83 % of control"}, {"measurement": "T/C", "setting": "dose: 16.05 mg/kg/injection, schedule: Q01DX011 (ip), vehicle: carboxymethylcellulose (CMC)", "result": "115 % of control"}, {"measurement": "T/C", "setting": "dose: 18.95 mg/kg/injection, schedule: Q01DX011 (ip), vehicle: carboxymethylcellulose (CMC)", "result": "94 % of control"}, {"measurement": "T/C", "setting": "dose: 25.0 mg/kg/injection, schedule: Q01DX011 (ip), vehicle: methylcellulose (MC)", "result": "61 % of control"}, {"measurement": "T/C", "setting": "dose: 25.68 mg/kg/injection, schedule: Q01DX011 (ip), vehicle: carboxymethylcellulose (CMC)", "result": "68 % of control"}, {"measurement": "T/C", "setting": "dose: 35.0 mg/kg/injection, schedule: Q01DX011 (ip), vehicle: carboxymethylcellulose (CMC)", "result": "84 % of control"}, {"measurement": "T/C", "setting": "dose: 37.9 mg/kg/injection, schedule: Q01DX011 (ip), vehicle: carboxymethylcellulose (CMC)", "result": "80 % of control"}, {"measurement": "T/C", "setting": "dose: 42.8 mg/kg/injection, schedule: Q01DX011 (ip), vehicle: carboxymethylcellulose (CMC)", "result": "41 % of control"}, {"measurement": "T/C", "setting": "dose: 45.0 mg/kg/injection, schedule: Q01DX011 (ip), vehicle: carboxymethylcellulose (CMC)", "result": "64 % of control"}, {"measurement": "T/C", "setting": "dose: 50.0 mg/kg/injection, schedule: Q01DX011 (ip), vehicle: methylcellulose (MC)", "result": "75 % of control"}, {"measurement": "T/C", "setting": "dose: 56.0 mg/kg/injection, schedule: Q01DX011 (ip), vehicle: carboxymethylcellulose (CMC)", "result": "98 % of control"}, {"measurement": "T/C", "setting": "dose: 64.0 mg/kg/injection, schedule: Q01DX011 (ip), vehicle: carboxymethylcellulose (CMC)", "result": "72 % of control"}, {"measurement": "T/C", "setting": "dose: 75.0 mg/kg/injection, schedule: Q01DX011 (ip), vehicle: methylcellulose (MC)", "result": "55 % of control"}, {"measurement": "T/C", "setting": "dose: 100.0 mg/kg/injection, schedule: Q01DX011 (ip), vehicle: methylcellulose (MC)", "result": "89 % of control"}]}, {"smiles": "Nc1nc(N)c(N)c(Nc2ccc(Br)cc2)n1", "values": [{"measurement": "T/C", "setting": "dose: 15.0 mg/kg/injection, schedule: Q01DX011 (ip), vehicle: saline", "result": "91 % of control"}, {"measurement": "T/C", "setting": "dose: 31.0 mg/kg/injection, schedule: Q01DX011 (ip), vehicle: saline", "result": "32 % of control"}]}]}
